ChEMBL document CHEMBL3639113, “TRPA1 antagonists” (2015)

Molecular target: Transient receptor potential cation channel subfamily A member 1 (Homo sapiens, UniProt O75762)
Experiment: FLIPR Calcium Assay: Ca2+ influx was measured using a FLIPR calcium assay kit (R8033; Molecular Devices, Sunnyvale, Calif.). The Ca2+ indicator dye was dissolved in Hanks' balanced salt solution supplemented with 20 mM HEPES buffer (HBSS/HEPES) according to the manufacturer instructions. Prior to start of the assay, the medium was removed by aspiration, and cells were loaded with 100 μL Ca2+ dye for 2 to 3 hours at room temperature. […] (4×) solutions of the test compounds were prepared in HBSS/HEPES, and 50 μL were added to the cells at a delivery rate of 10 μL/sec. Changes in fluorescence were measured over time in a fluorometric imaging plate reader (FLIPR, Molecular Devices). Two additions were made over the course of an experimental run. For agonist experiments, assay buffer was added at the 10 s time point, followed by addition of agonist at the 3 minute 10 sec time point.

Sequence of Transient receptor potential cation channel subfamily A member 1 (O75762 whole entry): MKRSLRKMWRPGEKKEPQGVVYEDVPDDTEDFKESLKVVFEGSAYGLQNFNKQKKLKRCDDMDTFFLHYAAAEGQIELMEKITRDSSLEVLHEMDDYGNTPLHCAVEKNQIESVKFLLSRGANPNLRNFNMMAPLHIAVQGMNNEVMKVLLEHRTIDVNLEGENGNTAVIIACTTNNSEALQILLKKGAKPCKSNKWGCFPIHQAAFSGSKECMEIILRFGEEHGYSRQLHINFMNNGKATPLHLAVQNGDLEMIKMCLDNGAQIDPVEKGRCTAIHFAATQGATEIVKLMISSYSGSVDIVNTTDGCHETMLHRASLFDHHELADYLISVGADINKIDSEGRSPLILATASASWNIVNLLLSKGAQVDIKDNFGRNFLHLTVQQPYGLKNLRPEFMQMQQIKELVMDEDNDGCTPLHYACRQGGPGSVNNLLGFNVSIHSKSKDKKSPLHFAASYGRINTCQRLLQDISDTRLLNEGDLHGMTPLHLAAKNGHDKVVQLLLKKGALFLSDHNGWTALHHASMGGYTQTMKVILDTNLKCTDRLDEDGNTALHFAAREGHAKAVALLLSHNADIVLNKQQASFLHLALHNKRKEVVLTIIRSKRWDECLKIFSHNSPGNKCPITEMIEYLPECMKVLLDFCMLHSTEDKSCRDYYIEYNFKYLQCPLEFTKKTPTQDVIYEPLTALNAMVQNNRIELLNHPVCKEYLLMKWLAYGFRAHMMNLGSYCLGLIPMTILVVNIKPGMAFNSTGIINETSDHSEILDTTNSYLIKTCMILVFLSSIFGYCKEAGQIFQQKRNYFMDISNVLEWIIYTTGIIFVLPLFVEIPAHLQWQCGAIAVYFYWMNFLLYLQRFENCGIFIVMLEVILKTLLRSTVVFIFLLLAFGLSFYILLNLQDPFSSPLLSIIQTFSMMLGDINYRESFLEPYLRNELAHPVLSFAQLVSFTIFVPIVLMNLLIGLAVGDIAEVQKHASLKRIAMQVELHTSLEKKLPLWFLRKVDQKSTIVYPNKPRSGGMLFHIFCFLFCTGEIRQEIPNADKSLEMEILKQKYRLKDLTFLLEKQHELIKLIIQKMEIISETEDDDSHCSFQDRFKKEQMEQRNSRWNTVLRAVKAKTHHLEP

Row | Compound | IC50 [µM]
1 | CCC(=N\OC)/C(C)=C/c1ccc(F)cc1 | 8.3
2 | CCC(=N\O)/C(C)=C/c1ccc(F)c(C#N)c1 | > 100
